Measurements as given in patent US8729089B2 (Gilead Sciences, Inc., priority 2006, dated 2014).

Tests used:
[1] = test system: HCV replicon in human hepatoma Huh-7 cell line; assay: Anti-HCV replicon assay (EC50, luciferase); type: cell-based; conditions: Hepatitis C virus, Huh-7, 72 h
Protocol: (§1) The anti-HCV activity of the pyrido[3,2-d]pyrimidine derivatives of this invention was tested in a human hepatoma Huh-7 cell line harboring a HCV replicon. The assay comprised the following steps:
(§2) Step 1: Compound Preparation and Serial Dilution
(§3) • 1. for water soluble pyrido[3,2-d]pyrimidine derivatives, a volume of 500 μL of solution in cell media (DMEM, 10% FBS, P/S, L-Glutamine) was prepared with a concentration being twice the concentration of the starting final serial dilution concentration. A volume of 150 μL of the solution was added to the pre-specified wells in column 1 of a 96-well cell culture plate (PerkinElmer, white plate, cat. #6005181, for EC50 assay; black plate, cat. #6005182 for CC50 assay). The rest of the plate, columns 2-12, was filled with 100 μL of cell media. The plate was then placed on a Precision 2000 Workstation to start the serial dilution. Compounds were diluted three times each step from column 1 to column 10. Column 11 was used as a blank control (no compound added). • 2. for pyrido[3,2-d]pyrimidine derivatives requiring DMSO to dissolve, serial dilution is performed in 50% DMSO in a 384-well plate. A solution containing a compound at 100-fold concentration of the starting final serial dilution concentration was prepared in 50% DMSO and added to the pre-specified wells in column 1 of a polypropylene 384-well plate. The plate was then placed on a Precision 2000 Workstation to start the serial dilution. After the serial dilution, a volume of 2 μL of the solution was transferred from the 384-well plate to a 96-well cell culture plate containing 100 μL of cell media on a Biomek FX Workstation. The DMSO concentration in the final assay condition was 0.5% after cells are added to the plate and the total volume in each well is brought to 200 μL.
(§4) Step 2: to each well of the serial dilution plate prepared above, 100 μL of cell media containing 6000 suspended Huh-7 HCV replicon cells was added with a Multidrop workstation. The plates were incubated for 3 days at 37° C. with 5% CO2.
(§5) • a) for the EC50 assay, the media in a 96-well cell culture plate was aspirated with a Biotek EL405 plate-washer. A volume of 200 μL of a solution containing a 1:1 mixture of cell-lysis buffer (Promega, Luciferase Cell Culture Lysis 5× Reagent, cat. #E1531) and luciferase substrate solution (Promega, Luciferase Assay, cat.#E4550) was added to each well of the plate with Multidrop. The plate was incubated for 30 minutes at room temperature before the luminescence signal was measured with a TopCount plate-reader. • b) for the CC50 assay, a volume of 100 μL of pre-mixed CellTiter-Glo (Promega, cat.#G7572) solution is added directly to the cell culture in each well of the plate and the luminescence signal is measured with a TopCount plate-reader after 10 minutes of incubation at room temperature.

[2] = CC50 assay (CellTiter-Glo) in Huh-7 HCV replicon cells; type: cell-based, human; conditions: human, 3 days incubation, CellTiter-Glo readout
Protocol: as §1, §2, §3, §4, §5

## CCOc1nc(NCc2ncco2)nc2ccc(-c3ccc(F)cc3)nc12 [Example 266, [4-Ethoxy-6-(4-fluoro-phenyl)-pyrido[3,2-d]pyrimidin-2-yl]-oxazol-2-ylmethyl-amine]
[1]
  EC50: < 0.1 µM
[2]
  CC50 at 3 days: > 25 µM

## Fc1ccc(-c2ccc3nc(NCC(F)(F)F)nc(O[C@H]4CCOC4)c3n2)cc1 [Example 20, [6-(4-Fluoro-phenyl)-4-(tetrahydro-furan-3-yloxy)-pyrido[3,2-d]pyrimidin-2-yl]-(2,2,2-trifluoro-ethyl)-amine]
[1]
  EC50: < 0.1 µM
[2]
  CC50 at 3 days: > 25 µM

## CCOc1nc(NCc2ccc(F)cc2)nc2ccc(-c3cccc(NS(C)(=O)=O)c3)nc12 [Example 66, N-{3-[4-Ethoxy-2-(4-fluoro-benzylamino)-pyrido[3,2-d]pyrimidin-6-yl]-phenyl}-methanesulfonamide]
[1]
  EC50: < 0.1 µM
[2]
  CC50 at 3 days: < 5 µM

## NS(=O)(=O)c1ccc(CNc2nc(NCC(F)(F)F)c3nc(-c4ccc(F)c(S(=O)(=O)NC5CCNCC5)c4)ccc3n2)cc1 [Example 214, 2-Fluoro-N-piperidin-4-yl-5-[2-(4-sulfamoyl-benzylamino)-4-(2,2,2-trifluoro-ethylamino)-pyrido[3,2-d]pyrimidin-6-yl]-benzenesulfonamide]
[1]
  EC50: < 0.1 µM
[2]
  CC50 at 3 days: 5 to 25 µM

## CCOc1nc(NCc2ccc(F)cc2)nc2ccc(-c3ccc(N4CCCC4=O)cc3)nc12 [Example 104, 1-{4-[4-Ethoxy-2-(4-fluoro-benzylamino)-pyrido[3,2-d]pyrimidin-6-yl]-phenyl}-pyrrolidin-2-one]
[1]
  EC50: < 0.1 µM
[2]
  CC50 at 3 days: 5 to 25 µM

## CCOc1nc(NCc2ccc(F)cc2)nc2ccc(-c3ccc(C(=O)NC4(C#N)CC4)cc3)nc12 [Example 98, N-(1-Cyano-cyclopropyl)-4-[4-ethoxy-2-(4-fluoro-benzylamino)-pyrido[3,2-d]pyrimidin-6-yl]-benzamide]
[1]
  EC50: < 0.1 µM
[2]
  CC50 at 3 days: > 25 µM

## CN(CC(F)(F)F)c1nc(NCc2ccc(S(N)(=O)=O)cc2)nc2ccc(-c3ccc(F)cc3)nc12 [Example 206, 4-({6-(4-Fluoro-phenyl)-4-[methyl-(2,2,2-trifluoro-ethyl)-amino]-pyrido[3,2-d]pyrimidin-2-ylamino}-methyl)-benzenesulfonamide]
[1]
  EC50: < 0.1 µM
[2]
  CC50 at 3 days: < 5 µM

## CC(C)(C)OC(=O)N1CCN(S(=O)(=O)c2cc(-c3ccc4nc(NCc5ccc(S(N)(=O)=O)cc5)nc(NCC(F)(F)F)c4n3)ccc2F)CC1 [Example 218, 4-{2-Fluoro-5-[2-(4-sulfamoyl-benzylamino)-4-(2,2,2-trifluoro-ethylamino)-pyrido[3,2-d]pyrimidin-6-yl]-benzenesulfonyl}-piperazine-1-carboxylic acid tert-butyl ester]
[1]
  EC50: < 0.1 µM
[2]
  CC50 at 3 days: 5 to 25 µM

## NS(=O)(=O)c1ccc(CNc2nc(NCC(F)(F)F)c3nc(-c4ccc(F)nc4)ccc3n2)cc1 [Example 190, 4-{[6-(6-Fluoro-pyridin-3-yl)-4-(2,2,2-trifluoro-ethylamino)-pyrido[3,2-d]pyrimidin-2-ylamino]-methyl}-benzenesulfonamide]
[1]
  EC50: < 0.1 µM
[2]
  CC50 at 3 days: < 5 µM

## CCOc1nc(NCc2ccc(F)cc2)nc2ccc(-c3ccc(NC(=O)CN)cc3)nc12 [Example 70, 2-Amino-N-{4-[4-ethoxy-2-(4-fluoro-benzylamino)-pyrido[3,2-d]pyrimidin-6-yl]-phenyl}-acetamide]
[1]
  EC50: < 0.1 µM
[2]
  CC50 at 3 days: < 5 µM

## CCOc1nc(NCc2ccc(S(N)(=O)=O)cc2)nc2ccc(-c3ccc(NC(=O)[C@@H](N)CO)cc3)nc12 [Example 137, (S)-4-{[4-Ethoxy-6-(4-((2-hydroxy-1-aminoethyl)-carboxamido)-phenyl)-pyrido[3,2-d]pyrimidin-2-ylamino]-methyl}-benzenesulfonamide]
[1]
  EC50: < 0.1 µM
[2]
  CC50 at 3 days: 5 to 25 µM

## CCOc1nc(NCc2ccc(S(N)(=O)=O)cc2)nc2ccc(-c3ccc(C(N)=O)cc3)nc12 [Example 138, 4-{[4-Ethoxy-6-(4-carbamoylphenyl)-pyrido[3,2-d]pyrimidin-2-ylamino]-methyl}-benzenesulfonamide]
[1]
  EC50: < 0.1 µM
[2]
  CC50 at 3 days: 5 to 25 µM
